Measurements: US20090029855A1, “Quinoline Derivatives and Their Use as Pesticides” (priority 2006, published 2009)

Tests used:
Type in all cases: in vivo
[1] = tested on: Yellowfever Mosquitos (Aedes Aegypti), 4th instar larvae; experiment: Activity against yellowfever mosquitos via water treatment
Method: The test compound (1 Vol % in acetone) was applied to 9 ml distilled water In polystyrene plastic 6-well plates. Treatment rates were applied 1 and 10 ppm. Ten, 4th instar yellowfever mosquito larvae, Aedes aegypti, were added to each well in 1 ml of distilled water. The test dishes were maintained at 22° C. and observed daily for mortality, up to 5 days after treatment. Each treatment was replicated in 6 wells.

[2] = tested on: Eastern Subterranean Termites (Reticulitérmes Flávipes); experiment: Activity against eastern subterranean termites via termite filter paper bait
Method: Toxicant treatments (0.1 and 0.3% test compound w/w) were applied to 4.25 cm (diam.) filter papers in acetone solution. Treatment levels (% test compound) were calculated on basis of a mean weight per filter paper of 106.5 mg. Treatment solutions were adjusted to provide the quantity of toxicant (mg) required per paper in […] of acetone. Acetone only was applied for untreated controls. Treated papers were vented to evaporate the acetone, moistened with 0.25 ml water, and placed in corresponding test arenas.
Termite bait bioassays were conducted in 100×15 mm Petri dishes with 1 teaspoon fine sand spread in a thin layer over the bottom of each dish. An additional 0.25 teaspoon sand was piled against the side of each dish. The sand was moistened with 2.7 ml water applied to the piled sand. Water was added to dishes as needed over the course of the bioassays to maintain high moisture content. Bioassays had one treated filter (on the sand) and 30 termite workers per test dish. Each treatment level was replicated in 3 test dishes. Test dishes were maintained at approximately 30° C. and 85% humidity for 14 days and observed daily for mortality.

[3] = tested on: Yellowfever Mosquito (Aedes aegypti); experiment: Yellowfever mosquito glass vial (glass contact) assay
Method: (§1) Glass vials (20 ml scintillation vials) were treated with 0.44 ml of a solution of active ingredient in acetone. Each vial was rolled uncapped for ca. 10 minutes to allow the active ingredient to completely coat the vial and to allow for full drying of the acetone. Six insects or ticks were placed into each vial, with 5 vials per treatment rate. The vials are kept at 22° C. and are observed for treatment effects at various time intervals.

[4] = tested on: House Fly (Musca domestica); experiment: House fly glass vial (glass contact) assay
Method: as §1

[5] = tested on: Acrobat Ant (Crematogaster sp.); experiment: Acrobat ant glass vial (glass contact) assay
Method: as §1

[6] = tested on: Acrobat Ant (Crematogaster sp.); experiment: Acrobat ant soil incorporation assay
Method: (§2) Soil was prepared by adding stock solutions (active dissolved in acetone) to 100 g sandy loam soil to make 1, 10, and 100 ppm batches. Jars of soils were rolled on a jar roller to mix thoroughly and then allowed to vent over night with the acetone evaporating off.
Ant bioassays were conducted in 100×20 mm Petri dishes and were prepared with a layer of 1% agar (7 ml) and then 12.75 g of dry treated soil. A cotton pellet (#2) soaked with a 10% sugar solution was added to each dish in a micro-weigh boat as a source of moisture and food. Each dish was then infested with 15 acrobat ant workers, Crematogaster sp. Three replicates were setup per treatment rate. Mortality was observed daily up to 7 days with moribund and dead ants removed at each reading.

[7] = tested on: Subterranean Termites (Reticulitermes flavipes); experiment: Termite soil incorporation assay; conditions: 100 ppm after 9 days
Method: as §2
Subterranean termite bioassays were conducted in 50×15 mm Petri dishes and were prepared with a layer of 1% agar (2 ml) and then 2 g of dry treated soil. A 1 cm^2 piece of filter paper, moistened with 1 drop of distilled water was added to each dish as a source of cellulose food. Each dish was then infested with 15 eastern subterranean termite workers, Reticulitermes flavipes. Five replicates were setup per treatment rate. Mortality was observed daily up to 7 days with moribund and dead termites removed at each reading.

[8] = tested on: 2-Spotted Spider Mite (Tetranychus Urticae, OP-Resistant Strain); experiment: 2-spotted spider mite, lima bean plant dip; conditions: 300 ppm; after 5 days
Method: (§3) The active compounds were formulated in 50:50 acetone:water and 100 ppm Kinetic™ surfactant.
Sieva lima bean plants with primary leaves expanded to 7-12 cm were infested by placing on each a small piece from an infested leaf (with about 100 mites) taken from the main colony. This was done at about 2 hours before treatment to allow the mites to move over to the test plant to lay eggs. The piece of leaf used to transfer the mites was removed. The newly-infested plants were dipped in the test solution and allowed to dry. The test plants were kept under fluorescent light (24 hour photoperiod) at about 25° C. and 20-40% relative humidity. After 5 days, one leaf was removed and mortality counts were made.

[9] = tested on: Southern Armyworm (Spodoptera Eridanid), 2nd-3rd instar larvae; experiment: Southern armyworm, lima bean foliage dip; conditions: foliar, 96 h, after 4 days, read-out: mortality in comparison with untreated controls
Method: The active compounds were formulated as a 10.000 ppm solution in a mixture of 35% acetone and water, which was diluted with water, if needed.
Sieva lima bean foliage, expanded to the first true leaves, were dipped and agitated in the test solution for 3 seconds and then allowed to dry in a fume hood. The treated plant was then placed in 25-cm plastic perforated zip enclosure bags, ten 2nd-instar larvae were added, and the bags sealed. After 4 days, observations were made of mortality, plant feeding, and of any interference with larval growth.

[10] = tested on: Colorado Potato Beetle (Leptinotarsa Decemlineata); experiment: Colorado potato beetle, potato leaf dip in Petri dishes; conditions: foliar, 120 h, 5 days after treatment, read-out: mortality in comparison with untreated controls
Method: Potato plants were utilized for bioassays. Excised plant leaves were dipped into 1:1 acetone/water dilutions of the active compounds. After the leaves had dried, they were individually placed onto water-moistened filter paper on the bottoms of Petri dishes. Each dish was infested with 5-7 larvae and covered with a lid. Each treatment dilution was replicated 4 times. Test dishes were held at approximately 27° C. and 60% humidity. Numbers of live and morbid larvae were assessed in each dish at 5 days after treatment application, and percent mortality was calculated.

[11] = tested on: Boll Weevil (Anthonomus grandis); experiment: Activity against boll weevil, eggs in microtiterplates; conditions: eggs sprayed, 3 to 5 days
Method: The active compounds were formulated in 1:3 DMSO:water. 10 to 15 eggs were placed into microtiterplates filled with 2% agar-agar in water and 300 ppm formaline. The eggs were sprayed with 20 μl of the test solution, the plates were sealed with pierced foils and kept at 24-26° C. and 75-85% humidity with a day/night cycle for 3 to 5 days. Mortality was assessed on the basis of the remaining unhatched eggs or larvae on the agar surface and/or quantity and depth of the digging channels caused by the hatched larvae. Tests were replicated 2 times.

[12] = tested on: Mediterranean Fruitfly (Ceratitis Capifata); experiment: Activity against Mediterranean fruitfly, eggs in microtiterplates; conditions: 144 h, eggs sprayed, 6 days
Method: (§4) The active compounds were formulated in 1:3 DMSO:water. 50 to 80 eggs were placed into microtiterplates filled with 0.5% agar-agar and 14% diet in water. The eggs were sprayed with 5 μl of the test solution, the plates were sealed with pierced foils and kept at 27-29° C. and 75-85% humidity under fluorescent light for 6 days. Mortality was assessed on the basis of the agility of the hatched larvae. Tests were replicated 2 times.

[13] = tested on: Tobacco Budworm (Heliothis Virescens); experiment: Activity against tobacco budworm, eggs in microtiterplates; conditions: 144 h, eggs sprayed, 6 days
Method: as §4, with “DMSO:water. 15” for “DMSO:water. 50”, “to 25” for “to 80”, “with diet.” for “with 0.5% agar-agar and 14% diet in water.”, “with 10” for “with 5”, “agility and of comparative feeding” for “agility”

[14] = tested on: Vetch Aphid (Megoura Viciae); experiment: Activity against vetch aphid, bean leaf disks in microtiterplates; conditions: foliar, 144 h, leaf disks sprayed, 6 days
Method: The active compounds were formulated in 1:3 DMSO:water. Bean leaf disks were placed into microtiterplates filled with 0.8% agar-agar and 2.5 ppm OPUS™. The leaf disks were sprayed with 2.5 μl of the test solution and 5 to 8 adult aphids were placed into the microtiterplates which were then closed and kept at 22-24° C. and 35-45% under fluorescent light for 6 days. Mortality was assessed on the basis of vital, reproduced aphids. Tests were replicated 2 times.

[15] = tested on: Cotton Aphid (Aphis Gossypil), mixed life stages; experiment: Cotton aphid, mixed life stages, cotton cotyledon dip; conditions: 120 h, after 5 days, read-out: mortality in comparison with untreated controls
From the text: The active compounds were formulated in 50:50 acetone:water and 100 ppm Kinetic® surfactant.
Cotton plants at the cotyledon stage were infested prior to treatment by placing a heavily infested leaf from the main aphid colony on top of each cotyledon. The aphids were allowed to transfer overnight and the host leaf was removed. The infested cotyledons were then dipped and agitated in the test solution for 3 seconds and allowed to dry in a fume hood. Test plants were maintained under fluorescent lighting in a 24-hr photoperiod at 25° C. and 20-40% relative humidity. Aphid mortality on the treated plants, relative to mortality on untreated check plants, was determined after 5 days.

[16] = tested on: Green Peach Aphid (Myzus Persicae); experiment: Green peach aphid, pepper plant leaf dip; conditions: foliar, 120 h, after 5 days, read-out: mortality in comparison with untreated controls
Method: as §3
Pepper plants in the 2nd leaf-pair stage (variety California Wonder) were infested with approximately 40 laboratory-reared aphids by placing infested leaf sections on top of the test plants. The leaf sections were removed after 24 hr. The leaves of the intact plants were dipped into gradient solutions of the test compound and allowed to dry. Test plants were maintained under fluorescent light (24 hour photoperiod) at about 25° C. and 20-40% relative humidity. Aphid mortality on the treated plants, relative to mortality on check plants, was determined after 5 days.

[17] = tested on: Silverleaf whitefly (Bemisia Argentifolii); experiment: Silverleaf whitefly, cotton cotyledon dip; conditions: 72 h, 3 days after treatment, read-out: mortality in comparison with untreated controls
Method: as §3
Selected cotton plants were grown to the cotyledon state (one plant per pot). The cotyledons were dipped into the test solution to provide complete coverage of the foliage and placed in a well-vented area to dry. Each pot with treated seedling was placed in a plastic cup and 10 to 12 whitefly adults (approximately 3-5 day old) were introduced. The insects were colleted using an aspirator and an 0.6 cm, non-toxic Tygon tubing connected to a barrier pipette tip. The tip, containing the collected insects, was then gently inserted into the soil containing the treated plant, allowing insects to crawl out of the tip to reach the foliage for feeding. The cups were covered with a re-usable screened lid (150 micron mesh polyester screen PeCap from Tetko Inc). Test plants were maintained in the holding room at about 25° C. and 20-40% relative humidity for 3 days avoiding direct exposure to the fluorescent light (24 hour photoperiod) to prevent trapping of heat inside the cup. Mortality was assessed 3 days after treatment of the plants.

[18] = tested on: Cowpea Aphid (Aphis Craccivora); experiment: Activity against cowpea aphid, sprayed potted cowpea plants; conditions: population reduction recorded after 24, 72 and 120 hours, read-out: mortality in comparison with untreated controls
Method: The active compounds were formulated in 50:50 acetone:water. Potted cowpea plants colonized with 100-150 aphids of various stages were sprayed after the pest population has been recorded. Population reduction was recorded after 24, 72, and 120 hours.

[19] = tested on: Diamond Back Moth (plutella Xylostella); experiment: Activity against diamond back moth, cabbage leaf disk dip; conditions: foliar, after 72 h, read-out: mortality in comparison with untreated controls
Method: 13. Activity Against Diamond Back Moth (plutella Xylostella) The active compounds were formulated in 50:50 acetone:water and 0.1% (vol/vol) Alkamuls EL 620 surfactant. A 6 cm leaf disk of cabbage leaves was dipped in the test solution for 3 seconds and allowed to air dry in a Petri plate lined with moist filter paper. The leaf disk was inoculated with 10 third instar larvae and kept at 25-27° C. and 50-60% humidity for 3 days. Mortality was assessed after 72 h of treatment.

Compound `O=S(=O)(NCc1ccnc2ccccc12)c1ccc(-c2ccc(Cl)cc2Cl)cc1` [I-1] has a mortality ([1]; 1 ppm after 3 days) of 100%, a mortality ([2]; 0.1% w/w after 7 days) of 99% and a mortality ([3]; 10 ppm after 48 hours) of 37%. It also gave a mortality ([4]; 10 ppm after 48 hours) of 30%, a mortality ([5]; 100 ppm after 4 days) of 7% and a mortality ([6]; 100 ppm after 7 days) of 36%. For the same compound, the mortality [7] was 95%.
For `Cc1cc(C(F)(C(F)(F)F)C(F)(F)F)ccc1-c1ccc(S(=O)(=O)NCc2ccnc3ccccc23)cc1` [I-46], the “mortality in comparison with untreated controls” value [8] was “at least 70%”.
In the case of `O=S(=O)(NCc1ccnc2c(Cl)cccc12)c1ccc(-c2ccc(C(F)(F)F)cc2C(F)(F)F)cc1` [I-22, 2′,4′-bis-trifluoromethyl-biphenyl-4-sulfonic acid (8-chloroquinoline-4-yl-methyl)-amide], the mortality at 300 ppm [9] is reported as ≥ 80% and the mortality at 300 ppm [10] is reported as ≥ 75%.
In the case of `O=S(=O)(NCc1ccnc2c(F)cccc12)c1ccc(Br)cc1` [II-5, 4-bromo-N-(8-fluoro-quinolin-4-ylmethyl)-benzenesulfonamide], the mortality at 2500 ppm [11] is reported as ≥ 75%.
Compound `O=S(=O)(NCc1ccnc2ccccc12)c1ccc(-c2ccc(C(F)(F)F)cc2C(F)(F)F)cc1` [I-10] has a mortality ([1]; 10 ppm after 5 days) of 52%, a mortality ([2]; 0.3% w/w after 14 days) of 86% and a mortality ([3]; 10 ppm after 24 hours) of 100%. For the same compound, the mortality ([4]; 10 ppm after 24 hours) was 80%, the mortality ([5]; 100 ppm after 2 days) was 86% and the mortality ([6]; 100 ppm after 3 days) was 100%. The mortality [7] was 84%.
With `O=S(=O)(NCc1ccnc2ccccc12)c1ccc(-c2cc(Cl)ccc2Cl)cc1` [I-8, 2′,5′-dichloro-biphenyl-4-sulfonicacid (quinoline-4-ylmethyl)-amide] the mortality at 2500 ppm [11] was ≥ 75%, the mortality at 2500 ppm [12] was ≥ 75% and the mortality at 2500 ppm [13] was ≥ 75%. For the same compound, the mortality at 2500 ppm [14] was ≥ 75%, the mortality at 300 ppm [15] was ≥ 80% and the mortality at 300 ppm [9] was ≥ 80%. The mortality at 300 ppm [16] was ≥ 75%, the mortality at 300 ppm [17] was ≥ 70% and the mortality at 300 ppm [18] was ≥ 80%. The mortality at 300 ppm [19] was ≥ 75%.
